Several values for one entry are separate records, joined by “and”; a condition that tells them apart may be missing. Equal values may be shown once. Read-outs that look alike come from different tables or passages of the source.
Molecular target: T1, Human AMPK α2β2γ1 (Homo sapiens, UniProt O43741+P54646)
T1 construct: The full length cDNAs of human AMPK β2 (NM_005399.3) and human AMPK α2 (NM_006252.3); The full length cDNAs of human AMPK β2 (NM_005399.3); the full length cDNA of human AMPK γ1 (NM_002733.3) had been inserted into pET28b(+); 6×His (N); made in house; host or cells: Escherichia coli BL21 CodonPlus (DE3)-RIL
T1 sequence (P54646 whole entry): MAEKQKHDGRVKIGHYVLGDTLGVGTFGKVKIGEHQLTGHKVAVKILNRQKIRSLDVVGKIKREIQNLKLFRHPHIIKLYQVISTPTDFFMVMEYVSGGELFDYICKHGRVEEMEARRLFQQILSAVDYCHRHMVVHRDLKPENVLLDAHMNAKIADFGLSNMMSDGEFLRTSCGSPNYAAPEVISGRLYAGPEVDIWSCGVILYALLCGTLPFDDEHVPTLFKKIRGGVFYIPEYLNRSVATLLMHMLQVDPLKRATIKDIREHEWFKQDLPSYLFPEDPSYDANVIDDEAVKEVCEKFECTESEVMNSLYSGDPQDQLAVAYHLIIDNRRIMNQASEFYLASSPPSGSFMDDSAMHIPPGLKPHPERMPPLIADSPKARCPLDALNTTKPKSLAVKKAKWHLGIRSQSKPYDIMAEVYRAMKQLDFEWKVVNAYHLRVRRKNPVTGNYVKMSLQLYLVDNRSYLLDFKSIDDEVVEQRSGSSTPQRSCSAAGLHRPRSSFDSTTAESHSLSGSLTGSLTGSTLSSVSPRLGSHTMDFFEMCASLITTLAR
T1 sequence (O43741 whole entry): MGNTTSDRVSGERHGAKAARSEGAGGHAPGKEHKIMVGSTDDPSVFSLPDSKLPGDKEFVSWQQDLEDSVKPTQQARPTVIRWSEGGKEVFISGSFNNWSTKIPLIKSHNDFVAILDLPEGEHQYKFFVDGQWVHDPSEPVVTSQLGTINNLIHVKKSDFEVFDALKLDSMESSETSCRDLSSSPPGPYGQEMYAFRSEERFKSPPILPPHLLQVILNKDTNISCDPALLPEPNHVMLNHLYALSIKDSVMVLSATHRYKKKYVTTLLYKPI
T1 sequence (P54619 whole entry partner): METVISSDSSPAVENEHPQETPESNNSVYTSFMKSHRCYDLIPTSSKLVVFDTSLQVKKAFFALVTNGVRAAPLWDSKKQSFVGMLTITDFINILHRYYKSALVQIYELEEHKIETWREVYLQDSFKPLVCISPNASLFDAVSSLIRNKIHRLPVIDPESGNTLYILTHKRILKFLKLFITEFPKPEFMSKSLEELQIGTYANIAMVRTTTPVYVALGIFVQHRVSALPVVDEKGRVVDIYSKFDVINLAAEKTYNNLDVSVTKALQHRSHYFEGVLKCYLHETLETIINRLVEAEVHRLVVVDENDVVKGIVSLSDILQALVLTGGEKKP
Experiment: Test Example 2: activation of phosphorylated human AMPK α2β2γ1 (mobility-shift kinase assay, FL-Peptide 7)
Type: biochemical
Settings: for EC150: compound concentration showing 150% relative to the control (100%), human AMPK α2β2γ1 phosphorylated with CaMKK2; for Emax: maximum rate of increase in activity within the measurement range, control = 100%
Protocol: The full length cDNAs of human AMPK β2 (NM_005399.3) and human AMPK α2 (NM_006252.3) were inserted into the MCS1 and MCS2 of the pETDuet-1 vector to prepare a human AMPK β2 and human AMPK α2 (6×His tag at the 5′ terminus) expressing plasmid. The plasmid was cotransfected with an expression plasmid, in which the full length cDNA of human AMPK γ1 (NM_002733.3) had been inserted into pET28b(+), into BL21 CodonPlus (DE3)-RIL to obtain an expression strain. The expression strain was cultured in TB medium, followed by induction with 0.5 mM IPTG, and cultured at 25° C. for 3 hours and then harvested. After ultrasonication, supernatant was collected and applied to Histrap FF column (GE) and RESOUECE Q column (GE) to prepare 12.5 mg of purified sample containing three types of subunit from 1.8 L of broth.
An expression vector, in which the full length cDNA of human CAMKK β (NM_172226.1) had been inserted into pGEX-6P-3, was transfected into BL21 Star (DE3). The expression strain was cultured in TB medium, followed by induction with 0.5 mM IPTG, and cultured at 25° C. for 3 hours and then harvested. After ultrasonication, supernatant was collected and applied to GSTrap FF column (GE) to prepare 14 mg of GST-fused CAMKK β from 720 ml of broth.
Thus, phosphorylation treatment was carried out as pretreatment.
Human AMPK α2β2γ1 in an amount to give a conversion rate of approximately 10% by reaction for 2 hours, and CaMKK2 in an amount capable of sufficiently imparting activity to AMPK for one hour were mixed in a buffer solution consisting of a 50 mM HEPES-NaOH buffer solution (pH 7.0), 100 mM NaCl, 5 mM magnesium chloride, 0.1% bovine serum albumin, 0.2 mM sodium orthovanadate(V), 1 mM ethylene glycol-bis(2-aminoethyl ether)-N,N,N′,N′-tetraacetic acid (EGTA), 5 mM disodium β-glycerophosphate, 1 mM dithiothreitol and 0.2 mM ATP, and the resulting liquid was left to stand at 25° C. for 1 to 1.5 hours to sufficiently phosphorylate AMPK.
After that, to the enzyme liquid, which had been subjected to phosphorylation treatment, a compound dissolved in DMSO was added so as to have a 1% DMSO concentration. The resulting liquid was left to stand for 10 minutes.
To the liquid, a substrate solution consisting of a 50 mM HEPES-NaOH buffer solution (pH 7.0), 100 mM NaCl, 10 mM magnesium chloride, 0.1% bovine serum albumin, 0.2 mM sodium orthovanadate(V), 1 mM ethylene glycol-bis(2-aminoethyl ether)-N,N,N′,N′-tetraacetic acid (EGTA), 5 mM disodium β-glycerophosphate, 2 mM dithiothreitol, 0.4 mM ATP and 3 μM FL-Peptide 7 (manufactured by Caliper Life Sciences, Inc.) was added in equal amount (10 μl in total). The resulting liquid was allowed to react at 25° C. for 2 hours, then 10 μl of 20 mM EDTA was added thereto to stop the reaction.
To detect phosphorylated fluorescent substrates, the reaction mixture was applied to a measuring device, LabChip EZ Reader II manufactured by Caliper Life Science, Inc., for detecting fluorescence by using differences in mobility due to differences in charge. The setting conditions for the device were pressure, −1.5 PSI; upstream voltage, −2250 V; downstream voltage, −400 V; post sample buffer sip time, 40 seconds; final delay, 120 seconds; and peak order, Product First.
A conversion rate was calculated from the peak heights of the obtained substrate and product. The conversion rate when not containing a compound was used as a control, and a concentration dependent curve was made by plotting the rate of increase in activity to the control at each concentration of a compound.

Row | SMILES | EC150 | Emax (read-out: Emax) | Emax
1 | O[C@@H]1CO[C@H]2[C@@H]1OC[C@H]2Oc1cc2nc(-c3ccc(-c4ccc(NC5=NCCO5)cc4)cc3)c(F)cc2[nH]1 [Compound I-1-61] | 2.3 nM | 383% | 
2 | O[C@@H]1CO[C@H]2[C@@H]1OC[C@H]2Oc1cc2nc(-c3ccc(-c4ccc(Oc5ccncc5)cc4)cc3)c(F)cc2[nH]1 [Compound I-2-45] | 5 nM | 613% | 
3 | COCCNC(=O)c1ccc(-c2ccc(-c3nc4cc(O[C@@H]5CO[C@H](CO)C5)[nH]c4cc3F)cc2)cc1 [Compound I-2-82] | 0.5 nM | 591% | 
4 | CS(C)(=O)=NC1CC=C(c2ccc(-c3nc4cc(O[C@@H]5CO[C@H](CO)C5)[nH]c4cc3F)cc2)CC1 (stereo partly shown) [Compound I-2-73] | 4.2 nM | 681% | 
5 | O=S1(=Nc2ccc(-c3ccc(-c4nc5cc(O[C@@H]6CO[C@H]7[C@@H]6OC[C@H]7O)[nH]c5cc4F)cc3)cc2)CCOCC1 [Compound I-1-42] | 5.3 nM | 472% | 
6 | CS(=O)(=O)NC1CC=C(c2ccc(-c3nc4cc(O[C@@H]5CO[C@H]6[C@@H]5OC[C@H]6O)[nH]c4cc3F)cc2)CC1 (stereo partly shown) [Compound I-1-17] | 3.4 nM | 483% | 
7 | COCCN(C)C(=O)c1ccc(-c2ccc(-c3nc4cc(O[C@@H]5CO[C@H](CO)C5)[nH]c4cc3F)cc2)cc1 [Compound I-2-83] | 0.73 nM | 581% | 
8 | COCCS(=N)(=O)c1ccc(-c2ccc(-c3nc4cc(O[C@@H]5CO[C@H]6[C@@H]5OC[C@H]6O)[nH]c4cc3F)cc2)cc1 (stereo partly shown) [Compound I-2-96] | 2.9 nM | 631% | 
9 | COCCOc1ccc(-c2ccc(-c3nc4cc(O[C@@H]5CO[C@H]6[C@@H]5OC[C@H]6O)[nH]c4cc3F)cc2)cc1F [Compound I-2-59] | 40 nM | 458% | 
10 | CCC(=O)NC1CCN(c2ccc(-c3nc4cc(O[C@@H]5CO[C@H]6[C@@H]5OC[C@H]6O)[nH]c4cc3F)cc2)CC1 [Compound I-1-12] |  |  | 497% and 523%
11 | CO[C@@H]1[C@@H](CO)OC[C@H]1Oc1cc2nc(-c3ccc(-c4ccc(N=S(C)(C)=O)cc4)cc3)c(F)cc2[nH]1 [Compound I-2-38] | 9.2 nM | 597% | 
12 | CCP(=O)(CC)c1ccc(-c2ccc(-c3nc4cc(O[C@@H]5CO[C@H]6[C@@H]5OC[C@H]6O)[nH]c4cc3F)cc2)cc1 [Compound I-2-72] | 2.7 nM | 591% | 
13 | COCCOCCOc1ccc(-c2ccc(-c3nc4cc(O[C@@H]5CO[C@H]6[C@@H]5OC[C@H]6O)[nH]c4cc3F)cc2)cc1 [Compound I-2-48] | 1.1 nM | 635% | 
14 | CNC(=O)Nc1ccc(-c2ccc(-c3nc4cc(O[C@@H]5CO[C@H]6[C@@H]5OC[C@H]6O)[nH]c4cc3F)cc2)cc1 [Compound I-1-08] | 4.7 nM | 444% | 
15 | O[C@@H]1CO[C@H]2[C@@H]1OC[C@H]2Oc1cc2nc(-c3ccc(-c4ccc(OC5CNOC5)cc4)cc3)c(F)cc2[nH]1 (stereo partly shown) [Compound I-2-27] | 3.7 nM | 375% | 
16 | OCCSc1ccc(-c2ccc(-c3nc4cc(O[C@@H]5CO[C@H]6[C@@H]5OC[C@H]6O)[nH]c4cc3F)cc2)cc1 [Compound I-2-16] | 1.8 nM | 623% | 
17 | CCP(=O)(CC)c1ccc(-c2ccc(-c3nc4cc(O[C@@H]5CO[C@H](CO)C5)[nH]c4cc3F)cc2)cc1 [Compound I-2-78] | 1.5 nM | 573% | 

Row | SMILES | EC150 | Emax (read-out: Emax) | Emax
18 | O[C@@H]1CO[C@H]2[C@@H]1OC[C@H]2Oc1cc2nc(-c3ccc(-c4ccc(OCC5CCCO5)cc4)cc3)c(F)cc2[nH]1 (stereo partly shown) [Compound I-2-33] | 20 nM | 362% | 
19 | COC(=O)NC1CCN(c2ccc(-c3nc4cc(O[C@@H]5CO[C@H](CO)C5)[nH]c4cc3F)cc2)CC1 [Compound I-1-03] | 9.8 nM | 556% | 
20 | CNC(=O)c1ccc(-c2ccc(-c3nc4cc(O[C@@H]5CO[C@H]6[C@@H]5OC[C@H]6O)[nH]c4cc3F)cc2)cc1 [Compound I-1-55] | 0.34 nM | 431% | 
21 | CP(C)(=O)c1ccc(-c2ccc(-c3nc4cc(O[C@@H]5CO[C@H](CO)C5(F)F)[nH]c4cc3F)cc2)cc1 [Compound I-2-89] | 0.94 nM | 556% | 
22 | CCOC(=O)N[C@H]1CC[C@H](c2ccc(-c3nc4cc(O[C@@H]5CO[C@H]6[C@@H]5OC[C@H]6O)[nH]c4cc3F)cc2)CC1 [Compound I-1-14] | 24 nM | 513% | 
23 | O[C@@H]1CO[C@H]2[C@@H]1OC[C@H]2Oc1cc2nc(-c3ccc([C@@H]4CCCC[C@H]4O)cc3)c(F)cc2[nH]1 [Compound I-2-17] | 15 nM | 600% | 
24 | O[C@@H]1CO[C@H]2[C@@H]1OC[C@H]2Oc1cc2nc(-c3ccc(C4=CCN(C5=NCCO5)CC4)cc3)c(F)cc2[nH]1 [Compound I-1-51] | 12 nM | 486% | 
25 | CN(C)S(=N)(=O)c1ccc(-c2ccc(-c3nc4cc(O[C@@H]5CO[C@H](CO)C5)[nH]c4cc3F)cc2)cc1 (stereo partly shown) [Compound I-2-25] | 1.9 nM | 426% | 
26 | CS(=O)(=O)Nc1ccc(-c2ccc(-c3nc4cc(O[C@@H]5CO[C@H]6[C@@H]5OC[C@H]6O)[nH]c4cc3F)cc2)cc1 [Compound I-1-53] | 1.6 nM | 533% | 
27 | O[C@@H]1CO[C@H]2[C@@H]1OC[C@H]2Oc1cc2nc(-c3ccc(-c4ccc(Oc5cccnc5)cc4)cc3)c(F)cc2[nH]1 [Compound I-2-36] | 43 nM | 385% | 
28 | C[S+]([O-])c1ccc(-c2ccc(-c3nc4cc(O[C@@H]5CO[C@H](CO)C5)[nH]c4cc3F)cc2)cc1 (single isomer, unassigned) [Compound I-2-07] | 0.68 nM |  | 638%
29 | CS(C)(=O)=Nc1ccc(-c2ccc(-c3nc4cc(O[C@@H]5CC[C@@H](CO)OC5)[nH]c4cc3F)cc2)cc1 [Compound I-1-06] | 19 nM | 263% | 
30 | OC[C@H]1OC[C@@H](Oc2cc3nc(-c4ccc(C5(CO)CC5)cc4)c(F)cc3[nH]2)C1(F)F [Compound I-2-90] | 1.9 nM | 406% | 
31 | OCCCc1ccc(-c2ccc(-c3nc4cc(O[C@@H]5CO[C@H]6[C@@H]5OC[C@H]6O)[nH]c4cc3F)cc2)cc1 [Compound I-2-30] | 4.3 nM | 605% | 
32 | O[C@@H]1CO[C@H]2[C@@H]1OC[C@H]2Oc1cc2nc(-c3ccc(-c4ccc(C5=NCCO5)cc4)cc3)c(F)cc2[nH]1 [Compound I-1-15] | 0.58 nM | 525% | 
33 | COC(=O)NC1CC=C(c2ccc(-c3nc4cc(O[C@@H]5CO[C@H]6[C@@H]5OC[C@H]6O)[nH]c4cc3F)cc2)CC1 (stereo partly shown) [Compound I-1-23] | 2.9 nM |  | 436%
34 | OCC1(c2ccc(-c3nc4cc(O[C@@H]5CO[C@H]6[C@@H]5OC[C@H]6O)[nH]c4cc3F)cc2)CC1 [Compound I-2-66] | 1.1 nM | 580% | 
